Assay results: ChEMBL document CHEMBL5375953, “Discovery of Biaryl Amide Derivatives as Potent, Selective, and Orally Bioavailable RORγt Agonists for Cancer Immunotherapy” (J Med Chem, 2023)

Legend:
[1] = target: T1, Nuclear receptor ROR-alpha (Homo sapiens, UniProt P35398); test: Agonist activity at human Gal4-fused RORalpha expressed in HEK293T cells assessed as luciferase activity incubated for 16 to 20 hrs by Luciferase reporter gene assay; type: cell-based
T1 sequence (P35398 whole entry): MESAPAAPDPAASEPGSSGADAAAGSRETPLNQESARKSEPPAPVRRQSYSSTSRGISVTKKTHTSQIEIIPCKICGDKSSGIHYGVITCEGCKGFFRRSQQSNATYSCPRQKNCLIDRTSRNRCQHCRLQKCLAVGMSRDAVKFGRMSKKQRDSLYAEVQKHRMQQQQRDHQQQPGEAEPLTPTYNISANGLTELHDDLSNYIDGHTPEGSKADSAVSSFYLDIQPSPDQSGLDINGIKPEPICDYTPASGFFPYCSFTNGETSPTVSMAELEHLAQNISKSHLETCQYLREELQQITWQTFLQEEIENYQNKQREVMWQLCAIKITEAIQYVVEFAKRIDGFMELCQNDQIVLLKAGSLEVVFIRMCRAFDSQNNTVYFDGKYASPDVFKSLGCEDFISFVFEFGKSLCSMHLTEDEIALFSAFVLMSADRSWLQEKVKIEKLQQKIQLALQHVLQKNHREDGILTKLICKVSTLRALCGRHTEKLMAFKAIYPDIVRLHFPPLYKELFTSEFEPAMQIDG

[2] = target: T2, Nuclear receptor ROR-alpha (Homo sapiens) (UniProt P35398); test: Agonist activity at human Gal4-fused RORalpha expressed in HEK293T cells assessed as luciferase activity by measuring maximal response incubated for 16 to 20 hrs by Luciferase reporter gene assay relative to control; type: cell-based; conditions: filed as agonist, time 16-20 hrs
T2 sequence (whole entry): T1 sequence (P35398 whole entry)

[3] = target: T3, Nuclear receptor ROR-beta (Homo sapiens, UniProt Q92753); test: Agonist activity at human Gal4-fused RORbeta expressed in HEK293T cells assessed as luciferase activity incubated for 16 to 20 hrs by Luciferase reporter gene assay; type: cell-based
T3 sequence (Q92753 whole entry): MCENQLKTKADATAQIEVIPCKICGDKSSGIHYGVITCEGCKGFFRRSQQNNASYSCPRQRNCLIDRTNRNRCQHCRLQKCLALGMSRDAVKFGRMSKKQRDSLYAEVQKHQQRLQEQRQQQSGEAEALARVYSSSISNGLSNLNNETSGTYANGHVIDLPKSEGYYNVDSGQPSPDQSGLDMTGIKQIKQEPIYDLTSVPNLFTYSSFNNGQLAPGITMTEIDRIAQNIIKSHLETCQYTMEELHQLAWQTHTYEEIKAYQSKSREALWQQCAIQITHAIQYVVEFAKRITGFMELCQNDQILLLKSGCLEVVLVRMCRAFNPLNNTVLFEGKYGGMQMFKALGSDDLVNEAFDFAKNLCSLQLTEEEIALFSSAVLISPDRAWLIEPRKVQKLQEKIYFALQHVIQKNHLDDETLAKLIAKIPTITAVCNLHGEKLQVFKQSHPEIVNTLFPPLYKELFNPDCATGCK

[4] = target: T4, Nuclear receptor ROR-beta (Homo sapiens) (UniProt Q92753); test: Agonist activity at human Gal4-fused RORbeta expressed in HEK293T cells assessed as luciferase activity by measuring maximal response incubated for 16 to 20 hrs by Luciferase reporter gene assay relative to control; type: cell-based; conditions: filed as agonist, time 16-20 hrs
T4 sequence (whole entry): T3 sequence (Q92753 whole entry)

B16-F10 = test: Antitumor activity against mouse B16-F10 cells xenografted in C57BL/6 mouse assessed as tumor growth inhibition at 50 mg/kg,ip administrated on day 7 for 8 days relative to control; type: functional; conditions: B16-F10, 192 h, time 8 day, read-out: TGI
cells = conditions: Mus musculus, CD4+ T cell, 96 h
Description: Induction of Th17 cells differentiation in mouse CD4+ T cell assessed as increase in CD4+ IL-17A production incubated for 4 days by flow cytometry analysis

in vivo = conditions: CD-1, mouse, po, 10 mg/kg
[5] = Metabolic Stability in mouse liver microsome assessed as half life at […] measured upto 60 mins by HPLC-MS/MS analysis; type: ADME; conditions: liver microsomes
[6] = Metabolic Stability in mouse liver microsome assessed as microsomal intrinsic clearance at […] measured upto 60 mins by HPLC-MS/MS analysis; type: ADME; conditions: liver microsomes, read-out: CLH
[7] = Metabolic Stability in human liver microsome assessed as half life at […] measured upto 60 mins by HPLC-MS/MS analysis; type: ADME; conditions: liver microsomes
[8] = Metabolic Stability in human liver microsome assessed as microsomal intrinsic clearance at […] measured upto 60 mins by HPLC-MS/MS analysis; type: ADME; conditions: liver microsomes, read-out: CLH
[9] = target: T5, Nuclear receptor ROR-gamma (Homo sapiens, UniProt P51449); test: Inverse agonist activity at biotinylated APC-labeled RORgammat LBD (unknown origin) assessed as inhibition of europium-labeled SRC1 coactivator peptide recruitment incubated for 1 hr by dual FRET assay
T5 sequence (P51449 whole entry): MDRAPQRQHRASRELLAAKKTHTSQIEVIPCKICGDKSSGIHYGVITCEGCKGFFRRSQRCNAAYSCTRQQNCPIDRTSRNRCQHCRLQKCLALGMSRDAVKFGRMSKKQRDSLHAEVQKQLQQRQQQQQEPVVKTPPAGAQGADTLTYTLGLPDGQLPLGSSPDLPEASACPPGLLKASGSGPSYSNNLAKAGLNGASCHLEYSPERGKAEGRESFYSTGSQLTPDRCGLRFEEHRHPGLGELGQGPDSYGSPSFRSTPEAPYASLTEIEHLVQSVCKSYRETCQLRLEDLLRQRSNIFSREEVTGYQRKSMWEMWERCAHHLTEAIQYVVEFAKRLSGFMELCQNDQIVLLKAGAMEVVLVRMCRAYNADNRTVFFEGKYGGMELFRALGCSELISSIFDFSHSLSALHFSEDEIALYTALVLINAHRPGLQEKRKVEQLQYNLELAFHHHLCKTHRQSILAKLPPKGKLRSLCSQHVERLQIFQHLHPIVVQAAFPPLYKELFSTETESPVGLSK

[10] = target: T5, Nuclear receptor ROR-gamma; test: Agonist activity at biotinylated APC-labeled RORgammat LBD (unknown origin) assessed as increase in recruitment of europium-labeled SRC1 coactivator peptide incubated for 1 hr by dual FRET assay

Row | SMILES | half-life [5] | microsomal CLint [6] | half-life [7] | microsomal CLint [8] | EC50 [10] | other results
1 | CC(C)(C[C@H]1CN(S(=O)(=O)c2cccc(C(F)(F)F)c2)c2cc(-c3cc(F)cc(OC(F)F)c3)ccc2O1)C(=O)O [CINTIRORGON] |  |  |  |  |  | EC50 [1]: 2920 nM; %max [2]: 67.3%; EC50 [3]: 5430 nM; %max [4]: 100%; inhibition in vivo at 50 mg/kg (B16-F10): 45.3%; EC50 (cells): 9.8 nM; AUC(0-inf) at 24 h (in vivo): 3240 ng·h/mL
2 | CCS(=O)(=O)c1ccc(CNC(=O)c2cc(Cl)c(-c3ccc(CC(C)C)c(C#N)c3)c(Cl)c2)cc1 | 28 min | 49.5 µL/min/mg | < 2.5 min | > 554 µL/min/mg |  | 
3 | CCS(=O)(=O)c1ccc(CNC(=O)Nc2cc(Cl)c(-c3ccc(CC(C)C)c(C#N)c3)c(Cl)c2)cc1 | 50.6 min | 27.4 µL/min/mg | 3.9 min | 354 µL/min/mg |  | 
4 | CCS(=O)(=O)c1ccc(CC(=O)Nc2cc(Cl)c(-c3ccccc3)c(Cl)c2)cc1 |  |  |  |  |  | XC50 [9]: 9.2 nM
5 | CCS(=O)(=O)c1ccc(CC(=O)Nc2cc(Cl)c(-c3ccc(CC4CCCC4)c(C#N)c3)c(Cl)c2)cc1 |  |  |  |  | 14.3 nM | 
6 | CCS(=O)(=O)c1ccc(CC(=O)Nc2cc(Cl)c(-c3ccc(CC(C)C)c(C#N)c3)c(Cl)c2)nc1 | 37.4 min | 37 µL/min/mg | 9.3 min | 150 µL/min/mg |  | 
7 | CCS(=O)(=O)c1ccc(CC(=O)Nc2cc(Cl)c(-c3ccc(CC(C)C)c(F)c3)c(Cl)c2)cc1 |  |  |  |  | 15.2 nM | 
8 | CCS(=O)(=O)c1ccc(CC(=O)Nc2cc(Cl)c(-c3ccc(CC(C)C)c(C#N)c3)c(Cl)c2)cc1 | 37.7 min | 36.7 µL/min/mg | 2.6 min | 533 µL/min/mg | 12.2 nM | EC50 (cells): 13 nM

Second part, led by results:

Row | half-life [5] | microsomal CLint [6] | half-life [7] | microsomal CLint [8] | EC50 [10] | SMILES | other results
9 | 78.5 min | 17.6 µL/min/mg | 16.9 min | 81.9 µL/min/mg |  | CCC(C)Cc1ccc(-c2c(Cl)cc(NC(=O)Cc3ccc(S(=O)(=O)CC)cc3)cc2Cl)cc1C#N (stereo unspecified) | 
10 | 12.9 min | 108 µL/min/mg |  |  |  | CCS(=O)(=O)c1ccc(CC(=O)Nc2cc(Cl)c(-c3ccc(CN(C)C)c(C#N)c3)c(Cl)c2)cc1 | 
11 |  |  |  |  | 20.7 nM | CCS(=O)(=O)c1ccc(CC(=O)Nc2cc(Cl)c(-c3ccc(C=C4CCC4)c(C#N)c3)c(Cl)c2)cc1 | 
12 |  |  |  |  | 12.7 nM | CCS(=O)(=O)c1ccc(CC(=O)Nc2cc(Cl)c(-c3ccc(CC(C)C)cc3)c(Cl)c2)cc1 | 
